Experiments:
A2780 ovarian cells [1] = assay: A2780 Ovarian Cell Proliferation Assay in Lipid Reduced Medium, with Palmitate (control); type: cell-based; details: Homo sapiens, A2780; lipid reduced medium, 25 μM palmitate, 96 h, MTT; read-out: Proliferation A2780 with Palmitate pIC50 (converted)
How it was run: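 Read-out was MTT absorbance at 544 nm after 96 h at 37 °C. Cells grown overnight in RPMI1640/10% FCS were moved to 10% lipid-reduced serum with compound plus palmitate (final 25 μM, 0.2% fatty-acid-free BSA, 0.2% DMSO). IC50 came from least-squares curve fitting, expressed as −log(IC50).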

[2] = molecular target: T1, hFASN enzyme (full length) (Homo sapiens, UniProt P49327); assay: Fatty Acid Synthase (FASN) Inhibition Scintillation Proximity Assay; type: biochemical; details: for IC50: mean where tested more than once, ~ = standard error of pIC50 larger than 0.5; for inhibition at 10 µM: read-out: FASN % Effect @1E−05M
T1 construct: 10 μL hFASN enzyme (full length, 300 ng, purified in house); made in house
How it was run: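 Eight compound concentrations (0.01–30 μM) tested in pH 7.5 phosphate buffer with DTT; human full-length enzyme converted [3H]-acetyl-CoA plus malonyl-CoA, with NADPH, over 60 min at room temperature. Hydrophobic [3H]-palmitate detected by bead proximity scintillation imaging; control-normalised data fitted for IC50/pIC50.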

A2780 ovarian cells [3] = assay: A2780 Ovarian Cell Proliferation Assay in Lipid Reduced Medium, without Palmitate; type: cell-based; details: Homo sapiens, A2780; lipid reduced medium, without palmitate, 96 h, MTT; read-out: Proliferation A2780 w/o Palmitate pIC50 (converted)
How it was run: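 A2780 cells were seeded in 10% FCS medium and switched next day to 10% lipid-reduced serum without palmitate. Compounds at 0.01–30 μM were added with 0.2% DMSO, 0.2% fatty-acid-free BSA and 0.25% ethanol final. After 96 h, MTT absorbance at 544 nm was normalized to plate controls, and IC50/pIC50 came from a 4-parameter logistic fit.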

[4] = molecular target: T2, FASN Keto-reductase Domain (Homo sapiens, UniProt P49327); assay: Fatty Acid Synthase Keto-Reductase Domain (FASN KR) Inhibition; type: biochemical; details: mean where tested more than once; read-out: FASN K-R Domain pIC50 (converted)
T2 construct: 10 μL hFASN enzyme (full length, 300 ng, purified in house) and 360 μM NADPH; made in house
How it was run: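 Keto-reductase activity followed as NADPH consumption (A340 drop between 0 and 20 min, room temperature) using in-house full-length hFASN, 360 μM NADPH and ethyl acetoacetate substrate (180 mM stock), pH 7.5 phosphate buffer.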

T1 sequence (P49327 whole entry): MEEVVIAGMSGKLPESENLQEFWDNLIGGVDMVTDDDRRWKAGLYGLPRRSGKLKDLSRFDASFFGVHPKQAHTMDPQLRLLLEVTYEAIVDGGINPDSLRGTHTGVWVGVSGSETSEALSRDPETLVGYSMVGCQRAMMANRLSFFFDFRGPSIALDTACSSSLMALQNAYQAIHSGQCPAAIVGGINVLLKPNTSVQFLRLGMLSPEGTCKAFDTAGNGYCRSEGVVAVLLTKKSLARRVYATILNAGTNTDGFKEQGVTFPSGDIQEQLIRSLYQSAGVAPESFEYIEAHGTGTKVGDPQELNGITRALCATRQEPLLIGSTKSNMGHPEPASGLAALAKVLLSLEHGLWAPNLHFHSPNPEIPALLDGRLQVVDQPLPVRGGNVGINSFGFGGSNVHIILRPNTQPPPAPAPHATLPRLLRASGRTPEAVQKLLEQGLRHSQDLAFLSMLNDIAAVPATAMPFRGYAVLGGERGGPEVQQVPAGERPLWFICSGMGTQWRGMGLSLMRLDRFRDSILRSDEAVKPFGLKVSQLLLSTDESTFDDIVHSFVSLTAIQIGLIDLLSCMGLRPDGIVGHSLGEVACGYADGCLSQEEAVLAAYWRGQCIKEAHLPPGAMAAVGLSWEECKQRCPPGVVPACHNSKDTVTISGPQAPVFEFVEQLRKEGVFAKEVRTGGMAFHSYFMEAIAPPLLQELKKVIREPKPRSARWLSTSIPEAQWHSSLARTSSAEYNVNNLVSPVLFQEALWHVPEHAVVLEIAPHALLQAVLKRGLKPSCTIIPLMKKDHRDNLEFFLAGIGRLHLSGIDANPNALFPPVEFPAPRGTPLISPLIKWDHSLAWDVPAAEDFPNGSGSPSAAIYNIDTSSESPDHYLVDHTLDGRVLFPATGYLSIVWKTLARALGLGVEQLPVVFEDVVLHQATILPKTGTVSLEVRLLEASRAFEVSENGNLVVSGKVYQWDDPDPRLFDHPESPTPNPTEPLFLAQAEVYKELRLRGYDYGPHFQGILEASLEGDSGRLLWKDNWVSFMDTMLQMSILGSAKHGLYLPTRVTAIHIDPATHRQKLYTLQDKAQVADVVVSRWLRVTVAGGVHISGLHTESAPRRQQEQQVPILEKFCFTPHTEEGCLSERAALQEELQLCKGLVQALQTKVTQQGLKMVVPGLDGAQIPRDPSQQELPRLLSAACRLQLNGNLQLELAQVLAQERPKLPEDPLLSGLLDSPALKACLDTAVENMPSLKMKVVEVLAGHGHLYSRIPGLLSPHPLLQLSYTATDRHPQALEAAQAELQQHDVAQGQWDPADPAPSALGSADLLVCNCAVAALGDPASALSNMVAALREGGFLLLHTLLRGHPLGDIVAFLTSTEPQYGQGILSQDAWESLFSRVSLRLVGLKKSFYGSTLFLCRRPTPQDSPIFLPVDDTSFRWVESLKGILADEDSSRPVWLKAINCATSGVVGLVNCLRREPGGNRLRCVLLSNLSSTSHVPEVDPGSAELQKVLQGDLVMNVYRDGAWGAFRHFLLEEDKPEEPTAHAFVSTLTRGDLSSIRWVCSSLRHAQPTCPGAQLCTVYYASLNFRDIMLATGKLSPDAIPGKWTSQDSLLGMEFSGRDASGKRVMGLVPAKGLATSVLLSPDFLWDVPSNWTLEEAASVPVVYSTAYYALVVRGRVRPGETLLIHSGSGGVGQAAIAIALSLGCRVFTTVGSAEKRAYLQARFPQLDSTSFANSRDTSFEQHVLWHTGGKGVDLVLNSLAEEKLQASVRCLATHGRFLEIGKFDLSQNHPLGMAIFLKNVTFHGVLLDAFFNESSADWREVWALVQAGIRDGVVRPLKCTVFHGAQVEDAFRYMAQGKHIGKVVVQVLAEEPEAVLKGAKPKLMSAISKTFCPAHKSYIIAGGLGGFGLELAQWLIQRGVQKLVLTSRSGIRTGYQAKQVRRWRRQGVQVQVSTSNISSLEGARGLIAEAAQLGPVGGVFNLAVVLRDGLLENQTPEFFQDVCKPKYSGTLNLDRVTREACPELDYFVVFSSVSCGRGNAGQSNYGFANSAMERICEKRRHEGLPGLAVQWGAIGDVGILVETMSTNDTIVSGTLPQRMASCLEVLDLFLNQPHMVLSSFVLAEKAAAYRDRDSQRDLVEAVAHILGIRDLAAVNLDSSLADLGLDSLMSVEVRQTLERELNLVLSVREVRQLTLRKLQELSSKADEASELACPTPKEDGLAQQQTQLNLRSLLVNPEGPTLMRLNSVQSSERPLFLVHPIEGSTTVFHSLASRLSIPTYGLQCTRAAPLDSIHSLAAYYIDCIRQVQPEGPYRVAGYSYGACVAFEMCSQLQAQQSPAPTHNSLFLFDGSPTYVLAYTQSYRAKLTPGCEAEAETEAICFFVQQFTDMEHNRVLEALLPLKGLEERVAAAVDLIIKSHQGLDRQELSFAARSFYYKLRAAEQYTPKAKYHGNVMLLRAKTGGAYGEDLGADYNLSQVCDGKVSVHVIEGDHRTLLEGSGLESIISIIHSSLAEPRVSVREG
T2 sequence (P49327 whole entry, the tested form may be a part): as the sequence (P49327 whole entry) above

| IC50 (A2780 ovarian cells [1]) [nM] | IC50 [2] [nM] | inhibition at 10 µM [2] [%] | IC50 (A2780 ovarian cells [3]) [nM] | IC50 [4] [nM] | SMILES |
| --- | --- | --- | --- | --- | --- |
| 1450 | 166 | 106 | 347 | 437 | Cc1ccc(C(=O)N2CCC(c3ccc(-c4ccco4)cc3)CC2)cc1NC(=O)c1ccc(NC(C)C)nc1 [Compound 252, N-(5-(4-(4-(furan-2-yl)phenyl)piperidine-1-carbonyl)-2-methylphenyl)-6-(isopropylamino)nicotinamide] |
| ~1860 | 316 | 104 | ~257 | 1230 | Cc1ccc(C(=O)N2CCC(c3ccc(-c4cnn(CCN(C)C)c4)cc3)CC2)cc1NC(=O)c1ccc(NC(C)C)nc1 [Compound 253, N-(5-(4-(4-(1-(2-(dimethylamino)ethyl)-1H-pyrazol-4-yl)phenyl)piperidine-1-carbonyl)-2-methylphenyl)-6-(isopropylamino)nicotinamide] |
| ~10000 | 42.7 | 103 | 18.2 | 53.7 | Cc1ccc(C(=O)N2CCC(c3ccc(-c4cnn(C5CC5)c4)cc3)CC2)cc1NC(=O)c1ccc(NC(C)C)nc1 [Compound 254, N-(5-(4-(4-(1-cyclopropyl-1H-pyrazol-4-yl)phenyl)piperidine-1-carbonyl)-2-methylphenyl)-6-(isopropylamino)nicotinamide] |
| > 10000 | 617 | 95 | 891 | 2040 | Cc1ccc(C(=O)N2CCC(c3ncc(-c4cnn(C)c4)cn3)CC2)cc1NC(=O)c1ccc(Cl)nc1 [Compound 257, 6-chloro-N-(2-methyl-5-(4-(5-(1-methyl-1H-pyrazol-4-yl)pyrimidin-2-yl)piperidine-1-carbonyl)phenyl)nicotinamide] |
| > 10000 | 245 | 99 | 389 | 1230 | Cc1ccc(C(=O)N2CCC(c3ncc(-c4cnn(C)c4)cn3)CC2)cc1NC(=O)c1ccc(NC(C)C)nc1 [Compound 258, 6-(isopropylamino)-N-(2-methyl-5-(4-(5-(1-methyl-1H-pyrazol-4-yl)pyrimidin-2-yl)piperidine-1-carbonyl)phenyl)nicotinamide] |
| > 10000 | 56.2 | 103 | ~85.1 | 355 | Cc1ccc(C(=O)N2CC(c3ccc(-c4cccnc4N)cc3)C2)cc1NC(=O)c1ccc(Cl)nc1 [Compound 259, N-(5-(3-(4-(2-aminopyridin-3-yl)phenyl)azetidine-1-carbonyl)-2-methylphenyl)-6-chloronicotinamide] |
| > 10000 | 25.1 | 112 | 34.7 | 102 | Cc1ccc(C(=O)N2CC(c3ccc(-c4cccnc4N)cc3)C2)cc1NC(=O)c1ccc(N2CCOCC2)nc1 [Compound 260, N-(5-(3-(4-(2-aminopyridin-3-yl)phenyl)azetidine-1-carbonyl)-2-methylphenyl)-6-morpholinonicotinamide] |
| 3310 | 60.3 | 107 | 112 | 126 | Cc1ccc(C(=O)N2CCC(c3ccc(-c4cnn(-c5cccnc5)c4)cc3)CC2)cc1NC(=O)c1ccc(NC(C)C)nc1 [Compound 261, 6-(isopropylamino)-N-(2-methyl-5-(4-(4-(1-(pyridin-3-yl)-1H-pyrazol-4-yl)phenyl)piperidine-1-carbonyl)phenyl)nicotinamide] |
| > 10000 | 263 | 89 | 617 | 1050 | Cn1cc(-c2ccc(C3CCN(C(=O)c4ccc(OCc5ccccc5)c(NC(=O)c5ccc(Cl)nc5)c4)CC3)cc2)cn1 [Compound 262, N-(2-(benzyloxy)-5-(4-(4-(1-methyl-1H-pyrazol-4-yl)phenyl)piperidine-1-carbonyl)phenyl)-6-chloronicotinamide] |
| > 10000 | 91.2 | 111 | 170 | 479 | Cc1ccc(C(=O)N2CCC(c3ccc(-c4cnn(C)c4)cn3)CC2)cc1NC(=O)c1ccc(Cl)nc1 [Compound 263, 6-chloro-N-(2-methyl-5-(4-(5-(1-methyl-1H-pyrazol-4-yl)pyridin-2-yl)piperidine-1-carbonyl)phenyl)nicotinamide] |
| > 10000 | 58.9 | 109 | 87.1 | 219 | Cc1ccc(C(=O)N2CCC(c3ccc(-c4cnn(C)c4)cn3)CC2)cc1NC(=O)c1ccc(NC(C)C)nc1 [Compound 264, 6-(isopropylamino)-N-(2-methyl-5-(4-(5-(1-methyl-1H-pyrazol-4-yl)pyridin-2-yl)piperidine-1-carbonyl)phenyl)nicotinamide] |
| > 10000 | 21.9 | 110 | 20.9 | 60.3 | Cc1ccc(C(=O)N2CC(c3ccc(-c4ccncc4N)cc3)C2)cc1NC(=O)c1ccc(N2CCOCC2)nc1 [Compound 265, N-(5-(3-(4-(3-aminopyridin-4-yl)phenyl)azetidine-1-carbonyl)-2-methylphenyl)-6-morpholinonicotinamide] |
| > 10000 | 38 | 112 | ~41.7 | 107 | Cc1ccc(C(=O)N2CC(c3ccc(-c4ccncc4N)cc3)C2)cc1NC(=O)c1ccc(Cl)nc1 [Compound 266, N-(5-(3-(4-(3-aminopyridin-4-yl)phenyl)azetidine-1-carbonyl)-2-methylphenyl)-6-chloronicotinamide] |
| > 10000 | 25.7 | 112 | ~22.4 | 58.9 | Cc1ccc(C(=O)N2CCC(c3ccc(-c4cnn(CCO)c4)cc3)CC2)cc1NC(=O)c1ccc(NC(C)C)nc1 [Compound 267, N-(5-(4-(4-(1-(2-hydroxyethyl)-1H-pyrazol-4-yl)phenyl)piperidine-1-carbonyl)-2-methylphenyl)-6-(isopropylamino)nicotinamide] |
| > 10000 | 166 | 104 | 537 | 1350 | Cc1ccc(C(=O)N2CCC(c3ccc(-c4cnn(C)c4)nc3)CC2)cc1NC(=O)c1ccc(NC(C)C)nc1 [Compound 268, 6-(isopropylamino)-N-(2-methyl-5-(4-(6-(1-methyl-1H-pyrazol-4-yl)pyridin-3-yl)piperidine-1-carbonyl)phenyl)nicotinamide] |
| 7240 | 69.2 | 107 | 316 | 257 | CC(C)Nc1ccc(C(=O)Nc2cc(C(=O)N3CCC(c4ccc(-c5cnn(C)c5)cc4)CC3)ccc2O)cn1 [Compound 269, N-(2-hydroxy-5-(4-(4-(1-methyl-1H-pyrazol-4-yl)phenyl)piperidine-1-carbonyl)phenyl)-6-(isopropylamino)nicotinamide] |
| > 10000 | 589 | 93 | 1480 | 2750 | Cc1ccc(C(=O)N2CCC(c3ccc(-c4cnn(C)c4)nc3)CC2)cc1NC(=O)c1ccc(Cl)nc1 [Compound 270, 6-chloro-N-(2-methyl-5-(4-(6-(1-methyl-1H-pyrazol-4-yl)pyridin-3-yl)piperidine-1-carbonyl)phenyl)nicotinamide] |

Source: patent US9562035B2, “Benzamide derivative useful as FASN inhibitors for the treatment of cancer” (Janssen Pharmaceutica NV, priority 2013, dated 2017)
